Legend:
[1] = system: redroot pigweed; assay: Test Example 5: herbicidal effect by foliage application, plastic box (Table 20, symbol N); format: in vivo, redroot pigweed (Amaranthus retroflexus); details: for Herbicidal effect by foliage application, N: redroot pigweed: amount of applied herbicide 320 g/ha
In short: (§1)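 Post-emergence foliar test in sterilized diluvial soil. Compound applied as water-diluted emulsion at a predetermined rate to 14-day-old plants; evaluation at three weeks.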

[2] = system: rice flat sedge; assay: Test Example 3: herbicidal effect by foliage application, Wagner pot (Table 18, symbol E); format: in vivo, rice flat sedge (Cyperus iria); details: for herbicidal effect on rice flat sedge (E): 320 g/ha
In short: (§2)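 Plants were sown in alluvial soil held under 0.1–0.5 cm standing water and grown 14 days in a greenhouse at 25–30 °C. An emulsifiable formulation, water-diluted to the set dose, was then sprayed onto the foliage, and effects were scored three weeks later using previously defined criteria.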

[3] = system: velvetleaf; assay: Test Example 5: herbicidal effect by foliage application, plastic box (Table 20, symbol M); format: in vivo, velvetleaf (Abutilon theophrasti); details: for Herbicidal effect by foliage application, M: velvetleaf: amount of applied herbicide 320 g/ha
In short: as §1

[4] = system: green foxtail; assay: Test Example 5: herbicidal effect by foliage application, plastic box (Table 20, symbol G); format: in vivo, green foxtail (Setaria viridis); details: for Herbicidal effect by foliage application, G: green foxtail: amount of applied herbicide 320 g/ha
In short: as §1

[5] = system: wild oat; assay: Test Example 5: herbicidal effect by foliage application, plastic box (Table 20, symbol I); format: in vivo, wild oat (Avena fatua); details: for Herbicidal effect by foliage application, I: wild oat: amount of applied herbicide 320 g/ha
In short: as §1

[6] = system: Italian ryegrass; assay: Test Example 5: herbicidal effect by foliage application, plastic box (Table 20, symbol K); format: in vivo, Italian ryegrass (Lolium multiflorum); details: for Herbicidal effect by foliage application, K: Italian ryegrass: amount of applied herbicide 320 g/ha
In short: as §1

[7] = system: barnyard grass; assay: Test Example 3: herbicidal effect by foliage application, Wagner pot (Table 18, symbol H); format: in vivo, barnyard grass (Echinochloa crus-galli); details: for herbicidal effect on barnyard grass (H): 320 g/ha
In short: as §2

[8] = system: lambsquarters; assay: Test Example 5: herbicidal effect by foliage application, plastic box (Table 20, symbol O); format: in vivo, lambsquarters (Chenopodium album); details: for Herbicidal effect by foliage application, O: lambsquarters: amount of applied herbicide 320 g/ha
In short: as §1

[9] = system: persian speedwell; assay: Test Example 5: herbicidal effect by foliage application, plastic box (Table 20, symbol R); format: in vivo, Persian speedwell (Veronica persica); details: for Herbicidal effect by foliage application, R: persian speedwell: amount of applied herbicide 320 g/ha
In short: as §1

[10] = system: chickweed; assay: Test Example 5: herbicidal effect by foliage application, plastic box (Table 20, symbol P); format: in vivo, common chickweed (Stellaria media); details: for Herbicidal effect by foliage application, P: chickweed: amount of applied herbicide 320 g/ha
In short: as §1

[11] = system: barnyard grass; assay: Test Example 5: herbicidal effect by foliage application, plastic box (Table 20, symbol H); format: in vivo, barnyard grass (Echinochloa crus-galli); details: for Herbicidal effect by foliage application, H: barnyard grass: amount of applied herbicide 320 g/ha
In short: as §1

[12] = system: Chinese sprangletop; assay: Test Example 3: herbicidal effect by foliage application, Wagner pot (Table 18, symbol D); format: in vivo, chinese sprangletop (Leptochloa chinensis); details: for herbicidal effect on Chinese sprangletop (D): 320 g/ha
In short: as §2

[13] = system: blackgrass; assay: Test Example 5: herbicidal effect by foliage application, plastic box (Table 20, symbol J); format: in vivo, blackgrass (Alopecurus myosuroides); details: for Herbicidal effect by foliage application, J: blackgrass: amount of applied herbicide 320 g/ha
In short: as §1

[14] = system: windgrass; assay: Test Example 5: herbicidal effect by foliage application, plastic box (Table 20, symbol L); format: in vivo, windgrass (Apera spica-venti); details: for Herbicidal effect by foliage application, L: windgrass: amount of applied herbicide 320 g/ha
In short: as §1

[15] = system: southern crabgrass; assay: Test Example 5: herbicidal effect by foliage application, plastic box (Table 20, symbol F); format: in vivo, southern crabgrass (Digitaria ciliaris); details: for Herbicidal effect by foliage application, F: southern crabgrass: amount of applied herbicide 320 g/ha
In short: as §1

[16] = foliage application, 320 g/ha, evaluated three weeks after application
[17] = amount of applied herbicide 320 g/ha
[18] = 320 g/ha, foliage application after 14-day growth, evaluated three weeks after application
[19] = foliage application after 14-day growth, evaluated three weeks after application
[20] = foliage application, AAH 320 g/ha, three weeks after application

Cc1nn(C)c(=O)c(-c2c(-c3cccc(OC(F)F)c3)sc3ccc(F)cc23)c1O [2-234]
herbicidal effect on N: redroot pigweed (criteria 0-5) [1, 16]: 4 (Herbicidal rate of 70% or more and less than 90%)
herbicidal effect on E: rice flat sedge [2, 17]: 0 (Herbicidal rate of 5% or less (almost no effect))
herbicidal effect on M: velvetleaf (criteria 0-5) [3, 16]: 0 (Herbicidal rate of 5% or less (almost no effect))
herbicidal effect on G: green foxtail (criteria 0-5) [4, 16]: 0 (Herbicidal rate of 5% or less (almost no effect))
herbicidal effect on I: wild oat (criteria 0-5) [5, 16]: 0 (Herbicidal rate of 5% or less (almost no effect))
herbicidal effect on K: Italian ryegrass (criteria 0-5) [6, 16]: 0 (Herbicidal rate of 5% or less (almost no effect))
herbicidal effect on H: barnyard grass [7, 17]: 3 (Herbicidal rate of 40% or more and less than 70%)
herbicidal effect on O: lambsquarters (criteria 0-5) [8, 16]: 2 (Herbicidal rate of 20% or more and less than 40%)
herbicidal effect on R: persian speedwell (criteria 0-5) [9, 16]: 5 (Herbicidal rate of 90% or more (almost completely withered))
herbicidal effect on P: chickweed (criteria 0-5) [10, 16]: 5 (Herbicidal rate of 90% or more (almost completely withered))
herbicidal effect on H: barnyard grass (criteria 0-5) [11, 16]: 0 (Herbicidal rate of 5% or less (almost no effect))
herbicidal effect on D: Chinese sprangletop [12, 17]: 0 (Herbicidal rate of 5% or less (almost no effect))
herbicidal effect on J: blackgrass (criteria 0-5) [13, 16]: 0 (Herbicidal rate of 5% or less (almost no effect))
herbicidal effect on L: windgrass (criteria 0-5) [14, 16]: 0 (Herbicidal rate of 5% or less (almost no effect))
herbicidal effect on F: southern crabgrass (criteria 0-5) [15, 16]: 0 (Herbicidal rate of 5% or less (almost no effect))

CCCC(=O)Oc1c(C)nn(C)c(=O)c1-c1c(-c2ccccc2CC)sc2c(Cl)cccc12 [4-063]
herbicidal effect on N: redroot pigweed (evaluation grade 0-5) [1, 18]: 3 (Herbicidal rate of 40% or more and less than 70%)
herbicidal effect on rice flat sedge (E) [2]: 4 (Herbicidal rate of 70% or more and less than 90%)
herbicidal effect on M: velvetleaf (evaluation grade 0-5) [3, 18]: 0 (Herbicidal rate of 5% or less (almost no effect))
herbicidal effect on G: green foxtail (evaluation grade 0-5) [4, 18]: 0 (Herbicidal rate of 5% or less (almost no effect))
herbicidal effect on I: wild oat (evaluation grade 0-5) [5, 18]: 0 (Herbicidal rate of 5% or less (almost no effect))
herbicidal effect on K: Italian ryegrass (evaluation grade 0-5) [6, 18]: 0 (Herbicidal rate of 5% or less (almost no effect))
herbicidal effect on barnyard grass (H) [7]: 5 (Herbicidal rate of 90% or more (almost completely withered))
herbicidal effect on O: lambsquarters (evaluation grade 0-5) [8, 18]: 1 (Herbicidal rate of 5% or more and less than 20%)
herbicidal effect on R: persian speedwell (evaluation grade 0-5) [9, 18]: 0 (Herbicidal rate of 5% or less (almost no effect))
herbicidal effect on P: chickweed (evaluation grade 0-5) [10, 18]: 0 (Herbicidal rate of 5% or less (almost no effect))
herbicidal effect on H: barnyard grass (evaluation grade 0-5) [11, 18]: 0 (Herbicidal rate of 5% or less (almost no effect))
herbicidal effect on Chinese sprangletop (D) [12]: 3 (Herbicidal rate of 40% or more and less than 70%)
herbicidal effect on J: blackgrass (evaluation grade 0-5) [13, 18]: 0 (Herbicidal rate of 5% or less (almost no effect))
herbicidal effect on L: windgrass (evaluation grade 0-5) [14, 18]: 0 (Herbicidal rate of 5% or less (almost no effect))
herbicidal effect on F: southern crabgrass (evaluation grade 0-5) [15, 18]: 0 (Herbicidal rate of 5% or less (almost no effect))

CCSc1cccc(-c2sc3c(C)cccc3c2-c2c(O)c(C)nn(C)c2=O)c1 [4-122]
Herbicidal effect by foliage application, N: redroot pigweed [1, 19]: 4 (Herbicidal rate of 70% or more and less than 90%)
herbicidal effect on rice flat sedge (E) [2]: 4 (Herbicidal rate of 70% or more and less than 90%)
Herbicidal effect by foliage application, M: velvetleaf [3, 19]: 4 (Herbicidal rate of 70% or more and less than 90%)
Herbicidal effect by foliage application, G: green foxtail [4, 19]: 1 (Herbicidal rate of 5% or more and less than 20%)
Herbicidal effect by foliage application, I: wild oat [5, 19]: 0 (Herbicidal rate of 5% or less (almost no effect))
Herbicidal effect by foliage application, K: Italian ryegrass [6, 19]: 4 (Herbicidal rate of 70% or more and less than 90%)
herbicidal effect on barnyard grass (H) [7]: 5 (Herbicidal rate of 90% or more (almost completely withered))
Herbicidal effect by foliage application, O: lambsquarters [8, 19]: 4 (Herbicidal rate of 70% or more and less than 90%)
Herbicidal effect by foliage application, R: persian speedwell [9, 19]: 4 (Herbicidal rate of 70% or more and less than 90%)
Herbicidal effect by foliage application, P: chickweed [10, 19]: 5 (Herbicidal rate of 90% or more (almost completely withered))
Herbicidal effect by foliage application, H: barnyard grass [11, 19]: 1 (Herbicidal rate of 5% or more and less than 20%)
herbicidal effect on Chinese sprangletop (D) [12]: 0 (Herbicidal rate of 5% or less (almost no effect))
Herbicidal effect by foliage application, J: blackgrass [13, 19]: 1 (Herbicidal rate of 5% or more and less than 20%)
Herbicidal effect by foliage application, L: windgrass [14, 19]: 4 (Herbicidal rate of 70% or more and less than 90%)
Herbicidal effect by foliage application, F: southern crabgrass [15, 19]: 3 (Herbicidal rate of 40% or more and less than 70%)

CCCC(=O)Oc1c(C)nn(C)c(=O)c1-c1c(-c2cccc3c2OCC3)sc2c(Cl)cccc12 [4-099]
Herbicidal effect by foliage application, N: redroot pigweed [1, 19]: 2 (Herbicidal rate of 20% or more and less than 40%)
herbicidal effect on rice flat sedge (E) [2]: 4 (Herbicidal rate of 70% or more and less than 90%)
Herbicidal effect by foliage application, M: velvetleaf [3, 19]: 1 (Herbicidal rate of 5% or more and less than 20%)
Herbicidal effect by foliage application, G: green foxtail [4, 19]: 0 (Herbicidal rate of 5% or less (almost no effect))
Herbicidal effect by foliage application, I: wild oat [5, 19]: 0 (Herbicidal rate of 5% or less (almost no effect))
Herbicidal effect by foliage application, K: Italian ryegrass [6, 19]: 0 (Herbicidal rate of 5% or less (almost no effect))
herbicidal effect on barnyard grass (H) [7]: 5 (Herbicidal rate of 90% or more (almost completely withered))
Herbicidal effect by foliage application, O: lambsquarters [8, 19]: 0 (Herbicidal rate of 5% or less (almost no effect))
Herbicidal effect by foliage application, R: persian speedwell [9, 19]: 4 (Herbicidal rate of 70% or more and less than 90%)
Herbicidal effect by foliage application, P: chickweed [10, 19]: 1 (Herbicidal rate of 5% or more and less than 20%)
Herbicidal effect by foliage application, H: barnyard grass [11, 19]: 0 (Herbicidal rate of 5% or less (almost no effect))
herbicidal effect on Chinese sprangletop (D) [12]: 5 (Herbicidal rate of 90% or more (almost completely withered))
Herbicidal effect by foliage application, J: blackgrass [13, 19]: 0 (Herbicidal rate of 5% or less (almost no effect))
Herbicidal effect by foliage application, L: windgrass [14, 19]: 0 (Herbicidal rate of 5% or less (almost no effect))
Herbicidal effect by foliage application, F: southern crabgrass [15, 19]: 0 (Herbicidal rate of 5% or less (almost no effect))

Cc1nn(C)c(=O)c(-c2c(-c3ccc(OCC(=O)NCC(F)(F)F)cc3)sc3ccccc23)c1O [1-145]
N: redroot pigweed, herbicidal effect [1, 20]: 0 (Herbicidal rate of 5% or less (almost no effect))
M: velvetleaf, herbicidal effect [3, 20]: 0 (Herbicidal rate of 5% or less (almost no effect))
G: green foxtail, herbicidal effect [4, 20]: 0 (Herbicidal rate of 5% or less (almost no effect))
I: wild oat, herbicidal effect [5, 20]: 0 (Herbicidal rate of 5% or less (almost no effect))
K: Italian ryegrass, herbicidal effect [6, 20]: 0 (Herbicidal rate of 5% or less (almost no effect))
O: lambsquarters, herbicidal effect [8, 20]: 0 (Herbicidal rate of 5% or less (almost no effect))
R: persian speedwell, herbicidal effect [9, 20]: 0 (Herbicidal rate of 5% or less (almost no effect))
P: chickweed, herbicidal effect [10, 20]: 3 (Herbicidal rate of 40% or more and less than 70%)
H: barnyard grass, herbicidal effect [11, 20]: 0 (Herbicidal rate of 5% or less (almost no effect))
J: blackgrass, herbicidal effect [13, 20]: 0 (Herbicidal rate of 5% or less (almost no effect))
L: windgrass, herbicidal effect [14, 20]: 0 (Herbicidal rate of 5% or less (almost no effect))
F: southern crabgrass, herbicidal effect [15, 20]: 0 (Herbicidal rate of 5% or less (almost no effect))

Source: US20230085307A1, “PYRIDAZINONE COMPOUND AND HERBICIDE” (NISSAN CHEMICAL CORPORATION, priority 2019, published 2023)
